{
  "source": "ChEMBL document CHEMBL1153018",
  "about": "“Synthesis of pochoxime prodrugs as potent HSP90 inhibitors” (Bioorg Med Chem Lett, 2009)",
  "key": {"Mus musculus [1]": {"test_system": "Mus musculus", "assay": "Toxicity in ICR-SCID mouse heart assessed as […] level at 150 mg/kg administered 3 times per week for 4 weeks measured after 24 hrs of last dose relative to untreated control", "type": "organism-based", "set-up": "dose 150 mg/kg", "settings": "in vivo"}, "Mus musculus [2]": {"test_system": "Mus musculus", "assay": "Toxicity in ICR-SCID mouse heart assessed as cholesterol level at 100 mg/kg administered 3 times per week for 4 weeks measured after 24 hrs of last dose relative to untreated control", "type": "organism-based", "set-up": "dose 100 mg/kg", "settings": "in vivo"}, "Mus musculus [3]": {"test_system": "Mus musculus", "assay": "Toxicity in ICR-SCID mouse heart assessed as cholesterol level at 150 mg/kg administered 3 times per week for 4 weeks measured after 24 hrs of last dose relative to untreated control", "type": "organism-based", "set-up": "dose 150 mg/kg", "settings": "in vivo"}, "NSCLC": {"test_system": "NSCLC", "assay": "Growth inhibition of human NSCLC cells assessed as ATP level after 4 days", "type": "functional, cell-based"}, "[4]": {"assay": "Drug level in tumor of human BT474 cells xenografted in ICR-SCID mouse at 150 mg/kg, ip administered after 3 weeks tumor implantation measured after 6 hrs", "type": "ADME, organism-based, Neoplasm, BT-474", "set-up": "dose 150 mg/kg, route intraperitoneal", "settings": "tumor (human BT474 xenograft), read-out: Drug uptake"}, "[5]": {"assay": "Drug level in tumor of human BT474 cells xenografted in ICR-SCID mouse at 150 mg/kg, ip administered after 3 weeks tumor implantation measured after 12 hrs", "type": "ADME, organism-based, Neoplasm, BT-474", "set-up": "dose 150 mg/kg, route intraperitoneal", "settings": "tumor (human BT474 xenograft), read-out: Drug uptake"}, "[6]": {"assay": "Drug level in tumor of human BT474 cells xenografted in ICR-SCID mouse at 150 mg/kg, ip administered after 3 weeks tumor implantation measured after 48 hrs", "type": "ADME, organism-based, Neoplasm, BT-474", "set-up": "dose 150 mg/kg, route intraperitoneal", "settings": "tumor (human BT474 xenograft), read-out: Drug uptake"}, "MDA-MB-468": {"test_system": "MDA-MB-468", "assay": "Growth inhibition of human MDA-MB-468 cells assessed as ATP level after 4 days", "type": "functional", "settings": "MDA-MB-468, 96 h"}, "K562": {"test_system": "K562", "assay": "Growth inhibition of human K562 cells assessed as ATP level after 4 days", "type": "functional", "settings": "K562, 96 h"}, "HCT-116": {"test_system": "HCT-116", "assay": "Growth inhibition of human HCT116 cells assessed as ATP level after 4 days", "type": "functional", "settings": "HCT-116, 96 h"}, "[7]": {"assay": "Growth inhibition of human tarceva and iressa-resistant HCC827 cells assessed as ATP level after 4 days", "type": "functional", "settings": "HCC827, 96 h"}, "HCC827 [8]": {"test_system": "HCC827", "assay": "Induction of mutant EGFR degradation in human tarceva and iressa-resistant HCC827 cells at 20 to 500 nM by Western blotting", "type": "functional, cell-based"}, "HCC827 [9]": {"test_system": "HCC827", "assay": "Induction of mutant c-Raf degradation in human tarceva and iressa-resistant HCC827 cells at 20 to 500 nM by Western blotting", "type": "functional, cell-based"}, "HCC827 [10]": {"test_system": "HCC827", "assay": "Induction of mutant Cyclin D degradation in human tarceva and iressa-resistant HCC827 cells at 20 to 500 nM by Western blotting", "type": "functional, cell-based"}, "HCC827 [11]": {"test_system": "HCC827", "assay": "Induction of mutant Cdk4 degradation in human tarceva and iressa-resistant HCC827 cells at 20 to 500 nM by Western blotting", "type": "functional, cell-based"}, "NCI-H1975 [12]": {"test_system": "NCI-H1975", "assay": "Induction of mutant EGFR degradation in human tarceva and iressa-resistant NCI-H1975 cells at 20 to 500 nM by Western blotting", "type": "functional, cell-based"}, "NCI-H1975 [13]": {"test_system": "NCI-H1975", "assay": "Induction of mutant Met degradation in human tarceva and iressa-resistant NCI-H1975 cells at 20 to 500 nM by Western blotting", "type": "functional, cell-based"}, "NCI-H1975 [14]": {"test_system": "NCI-H1975", "assay": "Induction of mutant p-Akt degradation in human tarceva and iressa-resistant NCI-H1975 cells at 20 to 500 nM by Western blotting", "type": "functional, cell-based"}, "NCI-H1975 [15]": {"test_system": "NCI-H1975", "assay": "Induction of mutant Cyclin D degradation in human tarceva and iressa-resistant NCI-H1975 cells at 20 to 500 nM by Western blotting", "type": "functional, cell-based"}, "Homo sapiens": {"organism": "Homo sapiens", "assay": "Growth inhibition of human tarceva and iressa-resistant […] cells assessed as ATP level after 4 days", "type": "functional"}, "[16]": {"assay": "Drug level in tumor of human BT474 cells xenografted in ICR-SCID mouse at 200 mg/kg, ip administered after 3 weeks tumor implantation measured after 6 hrs", "type": "ADME, organism-based, Neoplasm, BT-474", "set-up": "dose 200 mg/kg, route intraperitoneal", "settings": "tumor (human BT474 xenograft), read-out: Drug uptake"}, "[17]": {"assay": "Drug level in tumor of human BT474 cells xenografted in ICR-SCID mouse at 200 mg/kg, ip administered after 3 weeks tumor implantation measured after 48 hrs", "type": "ADME, organism-based, Neoplasm, BT-474", "set-up": "dose 200 mg/kg, route intraperitoneal", "settings": "tumor (human BT474 xenograft), read-out: Drug uptake"}, "Mus musculus [18]": {"test_system": "Mus musculus", "assay": "Hepatotoxicity in ICR-SCID mouse liver assessed as aspartate aminotransferase level at 150 mg/kg administered 3 times per week for 4 weeks measured after 24 hrs of last dose relative to untreated control", "type": "toxicity, organism-based", "set-up": "dose 150 mg/kg", "settings": "in vivo"}, "Mus musculus [19]": {"test_system": "Mus musculus", "assay": "Hepatotoxicity in ICR-SCID mouse liver assessed as bilirubin level at 100 mg/kg administered 3 times per week for 4 weeks measured after 24 hrs of last dose relative to untreated control", "type": "toxicity, organism-based", "set-up": "dose 100 mg/kg", "settings": "in vivo"}, "Mus musculus [20]": {"test_system": "Mus musculus", "assay": "Toxicity in ICR-SCID mouse kidney assessed as creatinine level at 150 mg/kg administered 3 times per week for 4 weeks measured after 24 hrs of last dose relative to untreated control", "type": "organism-based", "set-up": "dose 150 mg/kg", "settings": "in vivo"}, "[21]": {"target": "Heat shock protein HSP 90-alpha (Homo sapiens) (UniProt P07900)", "description": "Binding affinity to human HSP90alpha"}},
  "note": "Activity calls are given as the source filed them. The rule behind the calls is not given here.",
  "data": [
    {"smiles": "O=C1OCC/C=C/CC/C=C/C(=N/OCC(=O)N2CCCCC2)Cc2c(Cl)c(O)cc(O)c21", "note": "[POCHOXIME A]", "values": [
      {"measurement": "Activity", "setting": "Mus musculus [1]", "result": 31, "unit": "U/L"},
      {"measurement": "Activity", "setting": "Mus musculus [2]", "result": 168, "unit": "mg/dL"},
      {"measurement": "Activity", "setting": "Mus musculus [3]", "result": 119, "unit": "mg/dL"},
      {"measurement": "Activity", "setting": "NSCLC", "result": "Active"},
      {"measurement": "concentration at 6 h", "setting": "[4]", "result": 6180, "unit": "ng/g"},
      {"measurement": "concentration at 12 h", "setting": "[5]", "result": 6500, "unit": "ng/g"},
      {"measurement": "concentration at 48 h", "setting": "[6]", "result": 4580, "unit": "ng/g"},
      {"measurement": "GI50", "setting": "MDA-MB-468", "result": 9, "unit": "nM"},
      {"measurement": "GI50", "setting": "K562", "result": 6, "unit": "nM"},
      {"measurement": "GI50", "setting": "HCT-116", "result": 9, "unit": "nM"},
      {"measurement": "GI50", "setting": "[7]", "result": 31, "unit": "nM"},
      {"measurement": "Activity", "setting": "HCC827 [8]", "result": "Active"},
      {"measurement": "Activity", "setting": "HCC827 [9]", "result": "Active"},
      {"measurement": "Activity", "setting": "HCC827 [10]", "result": "Active"},
      {"measurement": "Activity", "setting": "HCC827 [11]", "result": "Active"},
      {"measurement": "Activity", "setting": "NCI-H1975 [12]", "result": "Active"},
      {"measurement": "Activity", "setting": "NCI-H1975 [13]", "result": "Active"},
      {"measurement": "Activity", "setting": "NCI-H1975 [14]", "result": "Active"},
      {"measurement": "Activity", "setting": "NCI-H1975 [15]", "result": "Active"},
      {"measurement": "Activity", "setting": "Homo sapiens", "result": "Active"},
      {"measurement": "concentration at 6 h", "setting": "[16]", "result": 6520, "unit": "ng/g"},
      {"measurement": "concentration at 48 h", "setting": "[17]", "result": 4020, "unit": "ng/g"},
      {"measurement": "Activity", "setting": "Mus musculus [18]", "result": 191, "unit": "U/L"},
      {"measurement": "Activity", "setting": "Mus musculus [19]", "result": 0.2, "unit": "mg/dL"},
      {"measurement": "Activity", "setting": "Mus musculus [20]", "result": 0.2, "unit": "mg/dL"},
      {"measurement": "GI50", "setting": "[21]", "result": 21, "unit": "nM"}
    ]}
  ]
}
